Measurements reported in the NIST ThermoML archive (doi:10.1021/je200616t).

Test: xn = mol fraction of the nth substance listed
Settings: 101 kPa, Liquid, MP522 conductivity instrument

CCCC[n+]1ccccc1.O=S(=O)([N-]S(=O)(=O)C(F)(F)F)C(F)(F)F [1-butylpyridinium bis[(trifluoromethyl)sulfonyl]imide] + CC1COC(=O)O1
electrical conductivity [S/m]
Settings | 283.15 K | 293.15 K | 298.15 K | 303.15 K | 313.15 K
x1 = 0.0282 | 0.356 | 0.444 | 0.489 | 0.538 | 0.635
x1 = 0.0553 | 0.536 | 0.672 | 0.745 | 0.821 | 0.976
x1 = 0.0934 | 0.66 | 0.84 | 0.933 | 1.03 | 1.24
x1 = 0.1235 | 0.701 | 0.896 | 1 | 1.12 | 1.34
x1 = 0.1897 | 0.686 | 0.902 | 1.02 | 1.15 | 1.4
x1 = 0.269 | 0.607 | 0.821 | 0.938 | 1.07 | 1.34
x1 = 0.3709 | 0.493 | 0.692 | 0.802 | 0.927 | 1.19
x1 = 0.4666 | 0.4 | 0.58 | 0.681 | 0.798 | 1.04
x1 = 0.5668 | 0.323 | 0.483 | 0.575 | 0.679 | 0.906
x1 = 0.6944 | 0.248 | 0.386 | 0.467 | 0.561 | 0.764
x1 = 0.7943 | 0.208 | 0.33 | 0.403 | 0.489 | 0.681
x1 = 0.8591 | 0.188 | 0.3 | 0.367 | 0.448 | 0.628
x1 = 0.9208 | 0.17 | 0.275 | 0.338 | 0.415 | 0.587
x1 = 0.9715 | 0.157 | 0.256 | 0.317 | 0.392 | 0.556
x1 = 1 | 0.15 | 0.246 | 0.307 | 0.378 | 0.54

CCCC[n+]1ccccc1.O=S(=O)([N-]S(=O)(=O)C(F)(F)F)C(F)(F)F [1-butylpyridinium bis[(trifluoromethyl)sulfonyl]imide] + CC#N
electrical conductivity [S/m]
Settings | 283.15 K | 293.15 K | 298.15 K | 303.15 K | 313.15 K
x1 = 0.0379 | 3.17 | 3.52 | 3.68 | 3.85 | 4.19
x1 = 0.0652 | 3.38 | 3.77 | 3.96 | 4.16 | 4.55
x1 = 0.1114 | 3.28 | 3.72 | 3.94 | 4.18 | 4.64
x1 = 0.1566 | 2.84 | 3.3 | 3.54 | 3.78 | 4.26
x1 = 0.217 | 2.22 | 2.67 | 2.89 | 3.13 | 3.6
x1 = 0.3137 | 1.46 | 1.83 | 2.02 | 2.23 | 2.66
x1 = 0.4004 | 1.01 | 1.31 | 1.48 | 1.66 | 2.04
x1 = 0.513 | 0.653 | 0.897 | 1.03 | 1.18 | 1.5
x1 = 0.6732 | 0.371 | 0.546 | 0.647 | 0.762 | 1.01
x1 = 0.7658 | 0.282 | 0.427 | 0.512 | 0.611 | 0.83
x1 = 0.8473 | 0.223 | 0.348 | 0.424 | 0.511 | 0.708
x1 = 0.8897 | 0.2 | 0.316 | 0.388 | 0.47 | 0.657
x1 = 0.9649 | 0.167 | 0.261 | 0.33 | 0.405 | 0.576
x1 = 1 | 0.151 | 0.246 | 0.307 | 0.377 | 0.542

CCCCCC[n+]1ccccc1.O=S(=O)([N-]S(=O)(=O)C(F)(F)F)C(F)(F)F [1-hexylpyridinium bis(trifluromethylsulfonyl)imide] + CC1COC(=O)O1
electrical conductivity [S/m]
Settings | 283.15 K | 293.15 K | 298.15 K | 303.15 K | 313.15 K
x1 = 0.0128 | 0.184 | 0.226 | 0.249 | 0.275 | 0.324
x1 = 0.0186 | 0.243 | 0.303 | 0.334 | 0.367 | 0.435
x1 = 0.0321 | 0.354 | 0.445 | 0.489 | 0.539 | 0.641
x1 = 0.0545 | 0.472 | 0.597 | 0.661 | 0.731 | 0.874
x1 = 0.0693 | 0.519 | 0.66 | 0.733 | 0.814 | 0.976
x1 = 0.1001 | 0.567 | 0.729 | 0.815 | 0.911 | 1.1
x1 = 0.1332 | 0.574 | 0.749 | 0.841 | 0.944 | 1.16
x1 = 0.1806 | 0.539 | 0.72 | 0.817 | 0.925 | 1.15
x1 = 0.2489 | 0.463 | 0.636 | 0.73 | 0.838 | 1.06
x1 = 0.334 | 0.366 | 0.522 | 0.609 | 0.708 | 0.918
x1 = 0.4547 | 0.256 | 0.384 | 0.458 | 0.542 | 0.725
x1 = 0.5693 | 0.19 | 0.294 | 0.358 | 0.43 | 0.589
x1 = 0.7043 | 0.136 | 0.218 | 0.27 | 0.332 | 0.47
x1 = 0.8506 | 0.0986 | 0.167 | 0.208 | 0.258 | 0.377
x1 = 0.9425 | 0.0826 | 0.141 | 0.179 | 0.223 | 0.332
x1 = 1 | 0.0737 | 0.129 | 0.163 | 0.205 | 0.306

CCCCCC[n+]1ccccc1.O=S(=O)([N-]S(=O)(=O)C(F)(F)F)C(F)(F)F [1-hexylpyridinium bis(trifluromethylsulfonyl)imide] + CC#N
electrical conductivity [S/m]
Settings | 283.15 K | 293.15 K | 298.15 K | 303.15 K | 313.15 K
x1 = 0.0432 | 2.75 | 3.05 | 3.2 | 3.35 | 3.65
x1 = 0.0703 | 2.91 | 3.28 | 3.46 | 3.65 | 4.01
x1 = 0.0883 | 2.83 | 3.22 | 3.42 | 3.61 | 4
x1 = 0.1355 | 2.37 | 2.77 | 2.98 | 3.19 | 3.61
x1 = 0.2056 | 1.64 | 2 | 2.19 | 2.39 | 2.81
x1 = 0.2534 | 1.27 | 1.59 | 1.77 | 2 | 2.38
x1 = 0.332 | 0.886 | 1.16 | 1.3 | 1.46 | 1.79
x1 = 0.4498 | 0.503 | 0.702 | 0.811 | 0.935 | 1.2
x1 = 0.5297 | 0.351 | 0.51 | 0.599 | 0.702 | 0.924
x1 = 0.6276 | 0.239 | 0.362 | 0.437 | 0.518 | 0.704
x1 = 0.8155 | 0.128 | 0.207 | 0.256 | 0.316 | 0.452
x1 = 0.9205 | 0.0936 | 0.157 | 0.197 | 0.245 | 0.358
x1 = 1 | 0.0737 | 0.128 | 0.163 | 0.205 | 0.306
